Common to all, as to test: DTP human tumour cell line panel, 48 h
The test system of assay [1] is U-251.
In assay [2] the test system is UO-31.
Assay [3] relates to OVCAR-3.
For assay [4], the system named is HCT-116.
Assay [5] has as its system CCRF-CEM.
For assay [6], the system named is LOX IMVI.
The test system of assay [7] is RXF 393.
The subject of assay [8] is SF-295.
Assay [9] relates to HCC 2998.
In assay [10] the test system is CAKI-1.
The test system of assay [11] is NCI-H522.
Assay [12] concerns K562.
Assay [13] relates to HOP-62.
In assay [14] the test system is SW-620.
Assay [15] concerns HL-60.
The test system of assay [16] is SK-MEL-28.
The subject of assay [17] is COLO 205.
Assay [18] deals with OVCAR-4.
The test system of assay [19] is IGROV-1.
Assay [20] concerns NCI-H226.

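Following 48 hours of exposure in 96-well plates, responses at five concentrations were used to interpolate endpoints linearly. Here, GI50 denotes the concentration required for 50% inhibition of growth.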 Calls of active or inactive are those of the source. Rule as the data show it: active = GI50 up to about 1.1 µM and inactive = higher. A value given as a limit tells only on which side of the number the result lay.

Take `CCC1CN2CCc3cc(OC)c(OC)cc3C2CC1CC1c2cc(OC)c(OC)cc2CCN1C(=O)C(N)Cc1ccccc1.[O-][Cl+3]([O-])([O-])O` (stereo not drawn): the GI50 in [1] is 2.06 µM (inactive); in assay [2], 2.13 µM (inactive); in assay [3], 4.16 µM (inactive); in assay [4], 0.305 µM (active); in assay [5], 0.41 µM (active); in assay [6], 0.386 µM (active). Besides, the GI50 in assay [7] was 1.65 µM (inactive); in [8], 2.05 µM (inactive); in assay [9], 0.564 µM (active); in [10], 1.95 µM (inactive); in [11], 0.385 µM (active); in assay [12], 0.238 µM (active). The GI50 in assay [13] was 2.73 µM (inactive); in assay [14], 0.49 µM (active); in assay [15], 1.59 µM (inactive); in assay [16], 3.32 µM (inactive).
`C=C1CC(OC)(C(OC)C(=O)N(C)[C@H]2OCO[C@H]3C2O[C@H](C[C@@H](COC)OC)C(C)(C)C3OC)O[C@H](C)[C@@H]1C` (stereo partly drawn): the GI50 in [1] is 10.6 µM (inactive); in assay [17], 8.97 µM (inactive); in assay [2], 15.7 µM (inactive); in [3] it was 10 µM (inactive); in assay [4] it was 9.44 µM (inactive); in [5], 7.71 µM (inactive). In addition, the GI50 is 3.61 µM (inactive) in [18]; 5.68 µM (inactive) in assay [6]; 10.6 µM (inactive) in assay [7]; 10.1 µM (inactive) in assay [19]; 6.19 µM (inactive) in [20]; 7 µM (inactive) in assay [8]. Further, the GI50 is 10.8 µM (inactive) in assay [9]; 5.69 µM (inactive) in assay [10]; 11.5 µM (inactive) in assay [11]; 13.6 µM (inactive) in [12]; > 91.6 µM (inactive) in assay [13]; 14 µM (inactive) in [14]. The GI50 in assay [15] is 15.9 µM (inactive); in [16], 8.18 µM (inactive).
As for `C[n+]1ccc(Nc2ccc(NC(=O)c3ccc(Nc4cc[n+](C)c5ccc([N+](=O)[O-])cc45)cc3[N+](=O)[O-])cc2)cc1`, the GI50 in assay [1] was 22.6 µM (inactive); in assay [17], 14 µM (inactive); in assay [2] it was 45.3 µM (inactive); in assay [3], 18.9 µM (inactive); in assay [4], 31.1 µM (inactive); in [5], 24.4 µM (inactive). Moreover, the GI50 in assay [18] was 51.2 µM (inactive); in [6], > 68.2 µM (inactive); in [20] it was > 56.1 µM (inactive); in assay [8], 30.4 µM (inactive); in assay [9] it was > 100 µM (inactive); in [10], > 75.3 µM (inactive). Besides, the GI50 is 16.6 µM (inactive) in [11]; 14.3 µM (inactive) in [12]; 59.8 µM (inactive) in assay [13]; > 100 µM (inactive) in assay [14]; 25.9 µM (inactive) in [16].
In the case of `CO/N=C1/c2sccc2[C@H](NC(=O)C(Cc2ccccc2)NC(=O)OC(C)(C)C)[C@@H]1O` (stereo partly drawn), the GI50 is > 100 µM (inactive) in [1]; > 100 µM (inactive) in assay [17]; 51.4 µM (inactive) in [2]; > 100 µM (inactive) in assay [3]; > 100 µM (inactive) in [4]; > 100 µM (inactive) in [5]. Moreover, the GI50 in assay [18] was 45.6 µM (inactive); in assay [6], > 100 µM (inactive); in assay [7] it was > 100 µM (inactive); in assay [19], > 100 µM (inactive); in assay [20], > 100 µM (inactive); in assay [8], > 100 µM (inactive). The GI50 was > 100 µM (inactive) in assay [9]; > 100 µM (inactive) in assay [10]; > 100 µM (inactive) in assay [12]; > 100 µM (inactive) in assay [13]; > 100 µM (inactive) in [14]; 85.1 µM (inactive) in assay [15]. The GI50 in [16] was > 100 µM (inactive).
As for `CNC(=S)N/N=C(/C)CCC/C(C)=N/NC(=S)NC`, the GI50 in assay [1] is > 42.1 µM (inactive); in assay [17], 0.308 µM (active); in assay [2], > 54.8 µM (inactive); in assay [3], 0.411 µM (active); in [5], 0.145 µM (active); in assay [18], 1.69 µM (inactive). The GI50 in assay [6] was 1.8 µM (inactive); in [19] it was 3.02 µM (inactive); in assay [20], > 61.7 µM (inactive); in assay [8] it was > 100 µM (inactive); in assay [10], > 100 µM (inactive); in assay [11], 0.728 µM (active). Moreover, the GI50 in assay [12] is 0.408 µM (active); in assay [13], > 100 µM (inactive); in [15] it was > 100 µM (inactive); in assay [16], > 34.6 µM (inactive).
Turning to `CC(=O)C(=O)NC1/C=C(C)\C=C/C(O)C/C=C(C)\C=C/C(O)CC2OC(=O)C1(C)C(=O)C2C` (stereo not drawn), the GI50 in assay [1] is > 100 µM (inactive); in assay [17], > 62.2 µM (inactive); in [2], > 100 µM (inactive); in assay [3], > 100 µM (inactive); in assay [4], > 100 µM (inactive); in assay [5], > 76.7 µM (inactive). For the same compound, the GI50 in assay [18], in assay [6], in assay [7], in assay [19], in assay [20] and in [8] was > 100 µM (inactive) in each case. Besides, the GI50 is > 100 µM (inactive) in assay [9]; > 100 µM (inactive) in assay [10]; > 100 µM (inactive) in [11]; > 61.1 µM (inactive) in assay [12]; > 100 µM (inactive) in assay [13]; > 100 µM (inactive) in assay [14]. For the same compound, the GI50 in [16] is > 100 µM (inactive).
`CSc1nc(NC2OC(CO)C(O)C(O)C2O)c(N)c(=O)n1C` (stereo not drawn): the GI50 in assay [1], in [17], in assay [2], in assay [3], in assay [4] and in assay [5] was > 100 µM (inactive) throughout. Further, the GI50 in assay [18], in [6], in assay [7], in assay [19], in [20] and in [8] was > 100 µM (inactive) each time. For the same compound, the GI50 in [9], in assay [11], in assay [12], in assay [13], in [14] and in assay [15] was > 100 µM (inactive) each time. Moreover, the GI50 in assay [16] is > 100 µM (inactive).
As for `N#CCCN(CCC#N)c1ccc(/C=C2\N=C(c3cc([N+](=O)[O-])ccc3Cl)N(S(=O)(=O)c3ccccc3)C2=O)cc1`, the GI50 in assay [1], in [17], in assay [2], in assay [3], in assay [4] and in [5] was > 100 µM (inactive) each time. Further, the GI50 in assay [18], in assay [6], in assay [7], in assay [19], in [20] and in assay [8] was > 100 µM (inactive) in each case. Also, the GI50 in assay [9], in assay [10], in assay [11], in [12], in assay [13] and in [14] was > 100 µM (inactive) in each case. The GI50 in assay [16] is > 100 µM (inactive).
As to `CC1(C)O[C@H]2OC(CO)C(OS(C)(=O)=O)[C@H]2O1` (stereo partly drawn), the GI50 in assay [1], in assay [17], in assay [2], in assay [3], in assay [4] and in assay [5] was > 100 µM (inactive) in each case. Also, the GI50 was > 10 µM (inactive) in assay [18]; > 100 µM (inactive) in [6]; > 100 µM (inactive) in [19]; > 100 µM (inactive) in [8]; > 100 µM (inactive) in assay [9]; > 100 µM (inactive) in assay [10]. Also, the GI50 in assay [11] was 48.1 µM (inactive); in [13] it was > 100 µM (inactive); in assay [14] it was > 100 µM (inactive); in assay [15], > 100 µM (inactive); in [16], > 100 µM (inactive).
As to `CN(C)CCCNC(=O)c1c(-c2cccnc2)cnc2ccccc12`, the GI50 in assay [1], in assay [17], in assay [2], in assay [3], in assay [4] and in [5] was > 100 µM (inactive) each time. In addition, the GI50 in assay [18], in assay [7], in assay [19], in assay [20], in assay [8] and in assay [9] was > 100 µM (inactive) each time. The GI50 in assay [10], in assay [11], in [12], in assay [13], in [14] and in assay [15] was > 100 µM (inactive) each time. For the same compound, the GI50 in assay [16] was > 100 µM (inactive).
`CSC(=S)N(C)c1nc(N(C)C)s[s+]1`: the GI50 in assay [1], in [2], in [4], in [5], in assay [18] and in assay [7] was > 100 µM (inactive) each time. The GI50 in [19], in [20], in assay [8], in assay [9], in [10] and in assay [11] was > 100 µM (inactive) throughout. Also, the GI50 was > 100 µM (inactive) in [12]; > 100 µM (inactive) in assay [13]; > 100 µM (inactive) in assay [14]; 65.2 µM (inactive) in assay [15]; > 100 µM (inactive) in assay [16].

The values above are taken from ChEMBL document CHEMBL1201862, “PubChem BioAssay data set” (2004).
